Earlier results as cited in PubChem BioAssay AID1259409 (Chemical Carcinogenesis Research Information System (CCRIS), 2018).

System: rodent chemically induced tumor inhibition, incidence and multiplicity
Test: CCRIS tumor inhibitor studies

O=c1ccc2cc(O)c(O)cc2o1
tumour outcome (control, treated, inhibition, significance) (Carcinogen: 7,12-DIMETHYLBENZ[A]ANTHRACENE, 57-97-6, Dose [Inhibitor]: 0, 0.03% IN HIGH-FAT (20% SOYBEAN OIL) DIET FOR 19 WK BEGINNING 1 WK POST CARCINOGEN DOSE (STUDY DURATION: 20 WK), Route [Inhibitor]: ORAL, Species: RAT, Strain/Sex: SPRAGUE-DAWLEY/FEMALE, Target Tissue: Type of Lesion: MAMMARY GLAND: TUMOR, Dose [Carcinogen]: 5 MG ONCE, Promoter: NONE USED): 13/15 (87%), 8/15 (53%), 39%, p<0.05 | tumour outcome (control, treated, inhibition, significance) (Carcinogen: 7,12-DIMETHYLBENZ[A]ANTHRACENE, 57-97-6, Dose [Inhibitor]: 0, 0.03% IN HIGH-FAT (20% SOYBEAN OIL) DIET FOR 20 WK BEGINNING 1 WK POST CARCINOGEN DOSE (STUDY DURATION: 21 WK), Route [Inhibitor]: ORAL, Species: RAT, Strain/Sex: SPRAGUE-DAWLEY/FEMALE, Target Tissue: Type of Lesion: MAMMARY GLAND: ADENOCARCINOMA, Dose [Carcinogen]: 5 MG ONCE, Promoter: NONE USED): 17/20 (85%), 10/19 (53%), 38%, p<0.05 | tumour outcome (control, treated, inhibition, significance) (Carcinogen: 7,12-DIMETHYLBENZ[A]ANTHRACENE, 57-97-6, Dose [Inhibitor]: 0, 0.03% IN LOW-FAT (0.5% SOYBEAN OIL) DIET FOR 19 WK BEGINNING 1 WK POST CARCINOGEN DOSE (STUDY DURATION: 20 WK), Route [Inhibitor]: ORAL, Species: RAT, Strain/Sex: SPRAGUE-DAWLEY/FEMALE, Target Tissue: Type of Lesion: MAMMARY GLAND: TUMOR, Dose [Carcinogen]: 5 MG ONCE, Promoter: NONE USED): 8/15 (53%), 3/15 (20%), 62%, not significant | tumour outcome (control, treated, inhibition, significance) (Carcinogen: 7,12-DIMETHYLBENZ[A]ANTHRACENE, 57-97-6, Dose [Inhibitor]: 0, 0.03% IN LOW-FAT (0.5% SOYBEAN OIL) DIET FOR 20 WK BEGINNING 1 WK POST CARCINOGEN DOSE (STUDY DURATION: 21 WK), Route [Inhibitor]: ORAL, Species: RAT, Strain/Sex: SPRAGUE-DAWLEY/FEMALE, Target Tissue: Type of Lesion: MAMMARY GLAND: ADENOCARCINOMA, Dose [Carcinogen]: 5 MG ONCE, Promoter: NONE USED): 10/18 (56%), 4/22 (18%), 68%, p<0.05 | tumour outcome (control, treated, inhibition, significance) (Carcinogen: N-METHYL-N-NITROSOUREA, 684-93-5, Dose [Inhibitor]: 0, 0.03% IN DIET FOR 24 WK BEGINNING 1 WK POST CARCINOGEN DOSE (STUDY DURATION: 25 WK), Route [Inhibitor]: ORAL, Species: RAT, Strain/Sex: SPRAGUE-DAWLEY/FEMALE, Target Tissue: Type of Lesion: MAMMARY GLAND: TUMOR, Dose [Carcinogen]: 50 MG/KG ONCE, Promoter: NONE USED): 24/30 (80%), 17/31 (55%), 31%, p<0.05

S=C=NCC(c1ccccc1)c1ccccc1
tumour outcome (control, treated, inhibition, significance) (Carcinogen: 4-(METHYLNITROSAMINO)-1-(3-PYRIDYL)-1-BUTANONE, 64091-91-4, Dose [Inhibitor]: 0, 1 UMOL ONCE 2 HR PRIOR TO CARCINOGEN DOSE (STUDY DURATION: 16 WK), Route [Inhibitor]: GAVAGE, Species: MOUSE, Strain/Sex: STRAIN-A/FEMALE, Target Tissue: Type of Lesion: LUNG: ADENOMA, Dose [Carcinogen]: 10 UMOL IN 0.1 ML SALINE ONCE, Promoter: NONE USED): 100%, 60%, 40%, p<0.05 | tumour outcome (control, treated, inhibition, significance) (Carcinogen: 4-(METHYLNITROSAMINO)-1-(3-PYRIDYL)-1-BUTANONE, 64091-91-4, Dose [Inhibitor]: 0, 5 UMOL ONCE 2 HR PRIOR TO CARCINOGEN DOSE (STUDY DURATION: 16 WK), Route [Inhibitor]: GAVAGE, Species: MOUSE, Strain/Sex: STRAIN-A/FEMALE, Target Tissue: Type of Lesion: LUNG: ADENOMA, Dose [Carcinogen]: 10 UMOL IN 0.1 ML SALINE ONCE, Promoter: NONE USED): 100%, 45%, 55%, p<0.05

O=S(=O)(O)CCSSCCS(=O)(=O)O
tumour outcome (control, treated, inhibition, significance) (Carcinogen: CYCLOPHOSPHAMIDE, 50-18-0, Dose [Inhibitor]: 12 MG/KG BW IN DRINKING WATER 5/WK FOR 20 MO SIMULTANEOUSLY WITH CARCINOGEN TREATMENT (STUDY DURATION: 20 MO), Route [Inhibitor]: ORAL, Species: RAT, Strain/Sex: SPRAGUE-DAWLEY/MALE, Target Tissue: Type of Lesion: NERVOUS TISSUE: NEOPLASM, Dose [Carcinogen]: 2.5 MG/KG BW IN DRINKING WATER 5/WK FOR 20 MO, Promoter: NONE USED): 14%, 15%, -7%, not calculated | tumour outcome (control, treated, inhibition, significance) (Carcinogen: CYCLOPHOSPHAMIDE, 50-18-0, Dose [Inhibitor]: 12 MG/KG BW IN DRINKING WATER 5/WK FOR 20 MO SIMULTANEOUSLY WITH CARCINOGEN TREATMENT (STUDY DURATION: 20 MO), Route [Inhibitor]: ORAL, Species: RAT, Strain/Sex: SPRAGUE-DAWLEY/MALE, Target Tissue: Type of Lesion: URINARY BLADDER: TUMOR, Dose [Carcinogen]: 2.5 MG/KG BW IN DRINKING WATER 5/WK FOR 20 MO, Promoter: NONE USED): 30%, 12%, 60%, p>0.0005* | tumour outcome (control, treated, inhibition, significance) (Carcinogen: CYCLOPHOSPHAMIDE, 50-18-0, Dose [Inhibitor]: 12 MG/KG BW IN DRINKING WATER 5/WK FOR DURATION OF STUDY SIMULTANEOUSLY WITH CARCINOGEN TREATMENT (STUDY DURATION: LIFE), Route [Inhibitor]: ORAL, Species: RAT, Strain/Sex: SPRAGUE-DAWLEY/MALE, Target Tissue: Type of Lesion: URINARY BLADDER: PAPILLOMA, CARCINOMA, Dose [Carcinogen]: 2.5 MG/KG BW IN DRINKING WATER 5/WK FOR DURATION OF STUDY, Promoter: NONE USED): 32/100 (32%), 7/50 (14%), 56%, p<0.00005* | tumour outcome (control, treated, inhibition, significance) (Carcinogen: CYCLOPHOSPHAMIDE, 50-18-0, Dose [Inhibitor]: 35 MG/KG BW IN DRINKING WATER 5/WK FOR 20 MO SIMULTANEOUSLY WITH CARCINOGEN TREATMENT (STUDY DURATION: 20 MO), Route [Inhibitor]: ORAL, Species: RAT, Strain/Sex: SPRAGUE-DAWLEY/MALE, Target Tissue: Type of Lesion: NERVOUS TISSUE: NEOPLASM, Dose [Carcinogen]: 2.5 MG/KG BW IN DRINKING WATER 5/WK FOR 20 MO, Promoter: NONE USED): 14%, 15%, -7%, not calculated | tumour outcome (control, treated, inhibition, significance) (Carcinogen: CYCLOPHOSPHAMIDE, 50-18-0, Dose [Inhibitor]: 35 MG/KG BW IN DRINKING WATER 5/WK FOR 20 MO SIMULTANEOUSLY WITH CARCINOGEN TREATMENT (STUDY DURATION: 20 MO), Route [Inhibitor]: ORAL, Species: RAT, Strain/Sex: SPRAGUE-DAWLEY/MALE, Target Tissue: Type of Lesion: URINARY BLADDER: TUMOR, Dose [Carcinogen]: 2.5 MG/KG BW IN DRINKING WATER 5/WK FOR 20 MO, Promoter: NONE USED): 30%, 6%, 80%, p>0.0005* | tumour outcome (control, treated, inhibition, significance) (Carcinogen: CYCLOPHOSPHAMIDE, 50-18-0, Dose [Inhibitor]: 35 MG/KG BW IN DRINKING WATER 5/WK FOR DURATION OF STUDY SIMULTANEOUSLY WITH CARCINOGEN TREATMENT (STUDY DURATION: LIFE), Route [Inhibitor]: ORAL, Species: RAT, Strain/Sex: SPRAGUE-DAWLEY/MALE, Target Tissue: Type of Lesion: URINARY BLADDER: PAPILLOMA, CARCINOMA, Dose [Carcinogen]: 2.5 MG/KG BW IN DRINKING WATER 5/WK FOR DURATION OF STUDY, Promoter: NONE USED): 32/100 (32%), 3/50 (6%), 81%, p<0.00005*

COc1cc2c3cc1Oc1c(OC)c(OC)cc4c1[C@@H](Cc1ccc(O)c(c1)Oc1ccc(cc1)C[C@@H]3N(C)CC2)N(C)CC4
tumour outcome (control, treated, inhibition, significance) (Carcinogen: 7,12-DIMETHYLBENZ[A]ANTHRACENE, 57-97-6, Dose [Inhibitor]: 0, 2 UMOL 2/WK 30 MIN PRIOR TO EACH PROMOTER DOSE BEGINNING 1 WK POST CARCINOGEN DOSE (STUDY DURATION: 18 WK), Route [Inhibitor]: DERMAL, Species: MOUSE, Strain/Sex: ICR/FEMALE, Target Tissue: Type of Lesion: SKIN: PAPILLOMA, Dose [Carcinogen]: 50 UG ONCE, Promoter: 12-O-TETRADECANOYLPHORBOL-13-ACETATE, 16561-29-8): 100%, 20%, 80%, not calculated
